Source: patent US20110318380A1, “MHC Multimers in Cancer Vaccines and Immune Monitoring” (priority 2008, published 2011)
Read-outs that look alike come from different tables or passages of the source.

Experiments:
[1] = test system: T2 cells; conditions: cited from earlier work
[2] = target: purified folded MHC-complex (Example 37)
[3] = test system: PBL from a breast cancer patient; conditions: with vs without peptide; in doublets; cited from earlier work
[4] = target: Bcl-X(L)173-182 specific CD8 T cells in PBL from a breast cancer patient; assay: flow cytometry of PBL ex vivo, APC dextramer with 7-AAD, CD3 and CD8; compared with an HIV specific dextramer as negative control

In the case of “GLQHWVPEL (Irrelevant peptide) [BA4697-105, irrelevant peptide loaded on T2 target cells, reference compound]”, the “lysis of peptide-pulsed T2 cells” value ([1]; Clone 8, 9, 10, 11, and 12) is listed as “without killing”.

With “W6/32 mouse-anti-HLA-ABC antibody (Dako M0736)” the OD450 ratio to the negative control β2m [2] was > 6 fold.

For YLNDHLEPWI (listed as Homo Sapiens), the “lysis of peptide-pulsed T2 cells” value ([1]; Clone 7, 13, 15, 17, and 18) is given as “did not show specific lysis”, the “lysis of peptide-pulsed T2 cells” value ([1]; Clone 8, 9, 10, 11, and 12) is given as “effectively lysed” and the “cell lysis of T2 cells pulsed with different concentrations of peptide” value ([1]; clone 9, E:T ratio 1:1) is given as “significant even at low concentrations”. The “cell lysis of peptide-pulsed T2 cells” value ([1]; clone 9, specific vs irrelevant peptide, three E:T ratios) was “necessary to get killing of the target cell” and the “number of spots (IFN-gamma producing T-cells)” value [3] was “clearly shows the presence of BclX(L) specific T-cells”.

Work on “dextramer complex HLA-A2/Bcl-X(L)173-182-APC (from UniProt P61769 21-119) (peptide-MHC)” yielded a level of dextramer positive CD-8 cells in the patient sample [4] of 0.03%.
